pIC50: −log10 of the molar value. Where “and” joins values, the source holds several entries; their conditions need not be identical. Identical values can stand only once. Like-named read-outs stand apart in the source and are kept apart here.
Columns and labels:
NCI-H358 (K-Ras G12C) = assay: CellTiter-Glo cell viability assay, 5-day treatment; type: cell-based; conditions: Homo sapiens
Description: Protocol: CellTiter-Glo® Cell Viability Assay
Note—The following protocol describes a procedure for monitoring cell viability of K-Ras mutant cancer cell lines in response to a compound of the invention. Other RAS isoforms may be employed, though the number of cells to be seeded will vary based on cell line used.
(§1) Test compounds (132.5 nL) were directly dispensed into the assay plates containing cells. […] On day 5, assay plates and their contents were equilibrated to room temperature for approximately 30 minutes. […] Luminescence was measured using the PerkinElmer Enspire. Data were normalized by the following: (Sample signal/Avg. DMSO)*100. The data were fit using a four-parameter logistic fit.
as §1, with “nl)” for “nL)”

KRAS G12S = KRAS G12S (Homo sapiens, UniProt P01116+P62937, G12S); assay: Disruption of BRAF RBD interaction with Ras (FRET / MOA assay, with Cyclophilin A); type: biochemical
From the text: (§2) This protocol may also be executed substituting other Ras proteins or nucleotides.
(§3) The purpose of this biochemical assay was to measure the ability of test compounds to facilitate ternary complex formation between a nucleotide-loaded K-Ras isoform and Cyclophilin A; the resulting ternary complex disrupts binding to a BRAF^RBD construct, inhibiting K-Ras signaling through a RAF effector. Data is reported as IC50 values.
(§4) Compound was present in plate wells as a 10-point 3-fold dilution series starting at a final concentration of 30 μM. After incubation at 25° C. for 3 hours, a mixture of Anti-His Eu-W1024 and anti-GST allophycocyanin was then added to assay sample wells at final concentrations of 10 nM and 50 nM, respectively, and the reaction incubated for an additional 1.5 hours. […] Compounds that facilitate disruption of a K-Ras:RAF complex were identified as those eliciting a decrease in the TR-FRET ratio relative to DMSO control wells.
as §3, with “BRAF^RBDD” for “BRAF^RBD”

KRAS G13D = KRAS G13D (Homo sapiens, UniProt P01116+P62937, G13D); assay: as above; type: biochemical
From the text: as §2, §3, §4
as §3, with “BRAF^RBDD” for “BRAF^RBD”

KRAS G12V = KRAS G12V (Homo sapiens, UniProt P01116+P62937, G12V); assay: as above; type: biochemical
From the text: as §2, §3, §4
as §3, with “BRAF^RBDD” for “BRAF^RBD”

NRAS G12C = NRAS G12C (Homo sapiens, UniProt P01111+P62937, G12C); assay: as above; type: biochemical
From the text: as §2, §3, §4
as §3, with “BRAF^RBDD” for “BRAF^RBD”

KRAS G12C = KRAS G12C (Homo sapiens, UniProt P01116+P62937, G12C); assay: as above; type: biochemical
From the text: as §2, §3, §4
as §3, with “BRAF^RBDD” for “BRAF^RBD”

KRAS G12D = KRAS G12D (Homo sapiens, UniProt P01116+P62937, G12D); assay: as above; type: biochemical
From the text: as §2, §3, §4
as §3, with “BRAF^RBDD” for “BRAF^RBD”

KRAS G13C = KRAS G13C (Homo sapiens, UniProt P01116+P62937, G13C); assay: as above; type: biochemical
From the text: as §2, §3, §4
as §3, with “BRAF^RBDD” for “BRAF^RBD”

KRAS WT = KRAS WT (Homo sapiens, UniProt P01116+P62937); assay: as above; type: biochemical
From the text: as §2, §3, §4
as §3, with “BRAF^RBDD” for “BRAF^RBD”

[1] = NCI-H358, 120 h, 5-day treatment, read-out: H358 Cell Viability assay data (K-Ras G12C, IC50)
[2] = read-out: KRAS G12S FRET data, IC50
[3] = KRAS G13D, read-out: KRAS G13D FRET data IC50
[4] = KRAS G12V, read-out: KRAS G12V FRET data IC50
[5] = NRAS G12C, read-out: NRAS G12C FRET data IC50
[6] = read-out: KRAS G12C FRET data, IC50
[7] = read-out: KRAS G12D FRET data, IC50
[8] = read-out: KRAS G13C FRET data, IC50
[9] = KRAS WT, read-out: KRAS WT FRET data IC50
[10] = NCI-H358, H358, K-Ras G12C, read-out: Additional H358 Cell Viability assay data (K-Ras G12C, IC50)
[11] = KRAS G12C, read-out: KRAS G12C FRET data IC50
[12] = KRAS G13C, read-out: KRAS G13C FRET data IC50
[13] = KRAS G13D FRET data IC50, KRAS G13D
[14] = KRAS G12V FRET data IC50, KRAS G12V
[15] = NRAS G12C FRET data IC50, NRAS G12C
[16] = KRAS WT FRET data IC50, KRAS WT

KRAS G12V, sequence (P01116 1-169 isoform P01116-2 G12V limits assumed): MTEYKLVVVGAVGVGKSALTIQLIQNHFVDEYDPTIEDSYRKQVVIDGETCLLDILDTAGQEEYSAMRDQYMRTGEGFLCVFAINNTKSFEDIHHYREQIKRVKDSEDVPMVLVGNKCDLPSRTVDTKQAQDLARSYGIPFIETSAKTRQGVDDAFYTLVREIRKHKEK
KRAS G12V, sequence (P62937 whole entry): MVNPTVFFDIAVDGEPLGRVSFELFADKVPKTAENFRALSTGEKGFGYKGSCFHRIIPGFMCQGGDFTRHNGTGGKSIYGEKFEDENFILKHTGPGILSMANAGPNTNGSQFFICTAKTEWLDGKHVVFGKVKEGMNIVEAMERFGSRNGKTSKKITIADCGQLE
KRAS G12S, sequence (P01116 1-169 isoform P01116-2 G12S limits assumed): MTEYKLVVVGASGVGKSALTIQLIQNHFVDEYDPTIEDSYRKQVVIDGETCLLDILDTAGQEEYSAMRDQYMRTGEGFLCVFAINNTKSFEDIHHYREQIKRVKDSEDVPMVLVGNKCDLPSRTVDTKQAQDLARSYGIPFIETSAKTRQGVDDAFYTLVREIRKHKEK
KRAS G12S, sequence (P62937 whole entry): as the sequence (P62937 whole entry) above
KRAS G12D, sequence (P01116 1-169 isoform P01116-2 G12D limits assumed): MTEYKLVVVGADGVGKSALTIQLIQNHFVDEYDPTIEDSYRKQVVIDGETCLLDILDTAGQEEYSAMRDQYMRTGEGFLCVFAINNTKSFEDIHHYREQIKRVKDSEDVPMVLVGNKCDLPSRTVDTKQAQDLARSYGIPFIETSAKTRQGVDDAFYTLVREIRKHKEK
KRAS G12D, sequence (P62937 whole entry): as the sequence (P62937 whole entry) above
KRAS G13D, sequence (P01116 1-169 isoform P01116-2 G13D limits assumed): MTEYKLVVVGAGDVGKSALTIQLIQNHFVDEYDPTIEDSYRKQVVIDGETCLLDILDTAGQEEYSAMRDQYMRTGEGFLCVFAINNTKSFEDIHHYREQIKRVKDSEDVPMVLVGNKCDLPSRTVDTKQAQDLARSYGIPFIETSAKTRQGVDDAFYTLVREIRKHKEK
KRAS G13D, sequence (P62937 whole entry): as the sequence (P62937 whole entry) above
NRAS G12C, sequence (P01111 whole entry G12C): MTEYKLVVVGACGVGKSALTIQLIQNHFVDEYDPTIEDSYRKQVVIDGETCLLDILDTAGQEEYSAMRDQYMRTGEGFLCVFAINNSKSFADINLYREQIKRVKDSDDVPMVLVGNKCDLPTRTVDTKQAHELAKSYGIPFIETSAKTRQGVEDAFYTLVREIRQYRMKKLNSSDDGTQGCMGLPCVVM
NRAS G12C, sequence (P62937 whole entry): as the sequence (P62937 whole entry) above
KRAS WT, sequence (P01116 1-169 isoform P01116-2 limits assumed): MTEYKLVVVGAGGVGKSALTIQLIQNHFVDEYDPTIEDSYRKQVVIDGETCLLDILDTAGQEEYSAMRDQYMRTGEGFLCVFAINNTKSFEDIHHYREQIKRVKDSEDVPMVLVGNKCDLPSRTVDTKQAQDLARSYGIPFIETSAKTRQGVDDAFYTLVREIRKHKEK
KRAS WT, sequence (P62937 whole entry): as the sequence (P62937 whole entry) above
KRAS G13C, sequence (P01116 1-169 isoform P01116-2 G13C): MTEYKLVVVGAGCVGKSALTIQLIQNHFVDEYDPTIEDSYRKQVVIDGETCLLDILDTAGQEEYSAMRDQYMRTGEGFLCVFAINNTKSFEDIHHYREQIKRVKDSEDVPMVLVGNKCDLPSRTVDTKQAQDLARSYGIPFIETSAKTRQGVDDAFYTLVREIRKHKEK
KRAS G13C, sequence (P62937 whole entry): as the sequence (P62937 whole entry) above
KRAS G12C, sequence (P01116 1-169 isoform P01116-2 G12C): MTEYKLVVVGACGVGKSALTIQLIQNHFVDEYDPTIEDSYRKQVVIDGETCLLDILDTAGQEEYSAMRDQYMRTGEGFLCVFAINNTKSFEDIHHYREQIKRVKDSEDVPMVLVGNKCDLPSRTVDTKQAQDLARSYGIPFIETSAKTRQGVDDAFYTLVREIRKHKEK
KRAS G12C, sequence (P62937 whole entry): as the sequence (P62937 whole entry) above

| Compound | pIC50 (NCI-H358 (K-Ras G12C); [1]) | pIC50 (KRAS G12S; [2]) | pIC50 (KRAS G13D; [3]) | pIC50 (KRAS G12V; [4]) | pIC50 (NRAS G12C; [5]) | pIC50 (KRAS G12C; [6]) | pIC50 (KRAS G12D; [7]) | pIC50 (KRAS G13C; [8]) | pIC50 (KRAS WT; [9]) | pIC50 (NCI-H358 (K-Ras G12C); [10]) | pIC50 (KRAS G12C; [11]) | pIC50 (KRAS G13C; [12]) | pIC50 (KRAS G12S; KRAS G12S FRET data, IC50) | pIC50 (KRAS G13D; [13]) | pIC50 (KRAS G12V; [14]) | pIC50 (NRAS G12C; [15]) | pIC50 (KRAS G12C; KRAS G12C FRET data, IC50) | pIC50 (KRAS G12D; KRAS G12D FRET data, IC50) | pIC50 (KRAS G13C; KRAS G13C FRET data, IC50) | pIC50 (KRAS WT; [16]) |
| --- | --- | --- | --- | --- | --- | --- | --- | --- | --- | --- | --- | --- | --- | --- | --- | --- | --- | --- | --- | --- |
| CCn1c(-c2cccnc2[C@H](C)OC)c2c3cc(ccc31)-c1csc(n1)C[C@H](NC(=O)[C@H](C(C)C)N(C)C(=O)[C@H]1CCN(C(=O)OC)C1)C(=O)N1CCC[C@H](N1)C(=O)OCC(C)(C)C2 [Example A116] | 6.00 to 7.00 | 5.00 to 6.00 and < 5.00 | 5.00 to 6.00 and < 5.00 | 5.00 to 6.00 and < 5.00 | 5.00 to 6.00 and < 5.00 | 5.00 to 6.00 and < 5.00 | < 5.00 | 5.00 to 6.00 and < 5.00 | 5.00 to 6.00 and < 5.00 | – | – | – | – | – | – | – | – | – | – | – |
| C=CC(=O)N1CC[C@H](C(=O)N(C)[C@H](C(=O)N[C@H]2C[C@H]3CN(CCCO3)c3ccc4c(c3)c(c(-c3cccnc3[C@H](C)OC)n4CC)CC(C)(C)COC(=O)[C@@H]3CCCN(N3)C2=O)C(C)C)C1 (racemic) [Example A405] | – | < 5.00 | < 5.00 | < 5.00 | < 5.00 | – | < 5.00 | – | < 5.00 | < 6.00 | 5.00 to 6.00 | < 5.00 | – | – | – | – | – | – | – | – |
| CCn1c(-c2cnccc2COC)c2c3cc(ccc31)-c1cc(O)cc(c1)C[C@H](NC(=O)[C@H](C(C)C)N(C)C(=O)[C@H]1CCN(C(=O)N(C)C)C1)C(=O)N1CCC[C@H](N1)C(=O)OCC(C)(C)C2 [Example A42, (3S)-N3-[(1S)-1-{[(8S,14S)-22-ethyl-4-hydroxy-21-[4-(methoxymethyl)pyridin-3-yl]-18,18-dimethyl-9,15-dioxo-16-oxa-10,22,28-triazapentacyclo[18.5.2.1^2,6.1^10,14.0^23,27]nonacosa-1(26),2,4,6(29),20,23(27),24-heptaen-8-yl]carbamoyl}-2-methylpropyl]-N1,N1,N3-trimethylpyrrolidine-1,3-dicarboxamide] | 5.00 to 6.00 | – | – | – | – | – | – | – | – | – | – | – | 5.00 to 6.00 | 5.00 to 6.00 | 5.00 to 6.00 | 5.00 to 6.00 | 6.00 to 7.00 | < 5.00 | 5.00 to 6.00 | 5.00 to 6.00 |
| CCn1c(-c2cnccc2COC)c2c3cc(ccc31)-c1cc(O)cc(c1)C[C@H](NC(=O)[C@H](C(C)C)N(C)C(=O)[C@H]1CCN(CCO)C1)C(=O)N1CCC[C@H](N1)C(=O)OCC(C)(C)C2 [Example A23, (2S)—N-[(8S,14S)-22-ethyl-4-hydroxy-21-[4-(methoxymethyl)pyridin-3-yl]-18,18-dimethyl-9,15-dioxo-16-oxa-10,22,28-triazapentacyclo[18.5.2.1^2,6.1^10,14.0^23,27]nonacosa-1(26),2,4,6(29),20,23(27),24-heptaen-8-yl]-2-{1-[(3S)-1-(2-hydroxyethyl)pyrrolidin-3-yl]-N-methylformamido}-3-methylbutanamide] | 5.00 to 6.00 | – | – | – | – | – | – | – | – | – | – | – | 6.00 to 7.00 | 7.00 to 8.00 | 5.00 to 6.00 | 6.00 to 7.00 | 6.00 to 7.00 | 6.00 to 7.00 | 7.00 to 8.00 | 7.00 to 8.00 |
| CCn1c(-c2cnccc2COC)c2c3cc(ccc31)-c1cc(O)cc(c1)C[C@H](NC(=O)[C@H](C(C)C)N(C)C(=O)[C@H]1CCNC1)C(=O)N1CCC[C@H](N1)C(=O)OCC(C)(C)C2 [Example A10] | 5.00 to 6.00 | 7.00 to 8.00 | 7.00 to 8.00 | 6.00 to 7.00 | 7.00 to 8.00 | 7.00 to 8.00 | 6.00 to 7.00 | 7.00 to 8.00 | 7.00 to 8.00 | – | – | – | – | – | – | – | – | – | – | – |
| C=CC(=O)N1C[C@@H](C(=O)N(C)[C@H](C(=O)N[C@H]2Cc3cccc(c3)-c3ccc4c(c3)c(c(-c3cccnc3[C@H](C)OC)n4CC)CC(C)(C)COC(=O)[C@@H]3CCCN(N3)C2=O)C(C)C)[C@@H](C(F)(F)F)C1 [Example A401] | – | 5.00 to 6.00 | 5.00 to 6.00 | 5.00 to 6.00 | 5.00 to 6.00 | – | < 5.00 | – | 5.00 to 6.00 | 6.00 to 7.00 | 5.00 to 6.00 | 6.00 to 7.00 | – | – | – | – | – | – | – | – |

Source: US20230233569A1 (Revolution Medicines, Inc., priority 2020, published 2023)
